In patent US6447997B1, “Gene coding for GADD153 as a clinical diagnostic and prognostic in cancer therapy” (Research Development Foundation, priority 1997, dated 2002):

Assays:
GADD153 mRNA = assay: Change in GADD153 mRNA in tumor biopsies of head and neck cancer patients after cDDP-based treatment; type: in vivo, human; conditions: 24 h after start of first course
Method: The present inventors have also discovered that the prognostic method for clinical response by a tumor to a chemotherapeutic agent can accurately predict a corresponding therapeutic response by a patient even though there exist several sources for potential variation. The relationship between the change in GADD153 mRNA level at 24 h after the start of the first course of treatment with cDDP or cDDP plus radiation therapy and subsequent tumor clinical response to this therapy in 32 patients with stage IV head and neck cancer was examined.
Thirty-two patients with previously untreated stage IV head and neck cancer were treated at the UCSD Cancer Center on a phase I/II experimental protocol. All patients had been considered to have unresectable tumors. All patients received i.a. cDDP (150-200 mg/M^2) and i.v. sodium thiosulfate infusion concurrently. The details of this treatment program have been published elsewhere by the present inventors (17,18), which description is specifically incorporated herein by reference. cDDP was dissolved in 400 ml of 0.9% saline and infused over 3-5 minutes through a microcatheter placed angiographically to selectively encompass the dominant blood supply of the targeted tumor. Simultaneous with the cDDP infusion, sodium thiosulfate was infused i.v. at a dose of 9 g/m^2 dissolved in 300 ml of distilled water over 3 minutes, followed by 12 g/m^2 dissolved in one liter of distilled water over 6 h by continuous infusion to prevent severe nephrotoxicity. Treatment was repeated weekly for a total of 4 doses. […] Tumor response was assessed at 2 months using criteria based on physical examination, repeat computed tomography/magnetic resonance imaging studies, and repeat endoscopy and biopsy. […]
GADD153 message levels were quantified using a modification of the technique reported by Horikoshi et al (20). […] PCR products were separated on a 8 M (6%) acrylamide gel and analyzed using a Molecular Imaging System (BioRad, Hercules, Calif.). […]

UMSCC10b cells = assay: Sensitivity to cDDP in vitro, clonogenic assay; type: cell-based, human; conditions: parental cell line, 1 h exposure
Method: The sensitivity of the UMSCC10b cell line and its cDDP-resistant variants to cDDP was determined by clonogenic assay using a 1 h cDDP exposure. A single-cell suspension was plated into 60 mm tissue culture dishes (Corning) at 300 cells per dish in fresh medium. After incubation for 24 h at 37° C., cells had attached to the plates and cDDP was added to the cells and incubated for 1 h following which the cells were washed twice with phosphate-buffered saline and 5 ml of fresh medium was added. Cultures were incubated for an additional 13-15 days following which there were fixed with methanol, stained with Giemsa, and clusters of >50 cells were scored as colonies. cDDP-selected cells were cultured in drug-free media for 2 weeks before cDDP sensitivity was determined by clonogenic assay.

[1] = tested on: stage IV head and neck cancer; assay: Tumor clinical response of patients to cDDP-based treatment; type: in vivo, human; conditions: i.a. cDDP with i.v. sodium thiosulfate, with or without radiation therapy
Method: Thirty-two patients with previously untreated stage IV head and neck cancer were treated at the UCSD Cancer Center on a phase I/II experimental protocol. All patients had been considered to have unresectable tumors. All patients received i.a. cDDP (150-200 mg/M^2) and i.v. sodium thiosulfate infusion concurrently. The details of this treatment program have been published elsewhere by the present inventors (17,18), which description is specifically incorporated herein by reference. cDDP was dissolved in 400 ml of 0.9% saline and infused over 3-5 minutes through a microcatheter placed angiographically to selectively encompass the dominant blood supply of the targeted tumor. Simultaneous with the cDDP infusion, sodium thiosulfate was infused i.v. at a dose of 9 g/m^2 dissolved in 300 ml of distilled water over 3 minutes, followed by 12 g/m^2 dissolved in one liter of distilled water over 6 h by continuous infusion to prevent severe nephrotoxicity. Treatment was repeated weekly for a total of 4 doses. In addition, 17 of the 32 patients received radiotherapy in doses of […] (×35 fractions) starting concurrently with the start of cDDP treatment. Needle aspiration or small cutting needle biopsies were obtained just before and at 24 h following the first dose of cDDP. Tumor response was assessed at 2 months using criteria based on physical examination, repeat computed tomography/magnetic resonance imaging studies, and repeat endoscopy and biopsy.

[NH2][Pt]([NH2])([Cl])[Cl] [cDDP, cisplatin]
magnitude of increase, above baseline, in GADD153 mRNA, mean (SD) (GADD153 mRNA; CR group (17 patients)): 3.8±2.2 fold
magnitude of increase, above baseline, in GADD153 mRNA, mean (SD) (GADD153 mRNA; NR group (7 patients with tumor progression)): 0.8±0.5 fold
magnitude of increase, above baseline, in GADD153 mRNA, mean (SD) (GADD153 mRNA; PR group, all 8 patients): 1.6±0.9 fold
IC10 (UMSCC10b cells): 2 µM
IC50 (UMSCC10b cells): 7 µM
IC70 (UMSCC10b cells): 12 µM
patients who achieved a partial regression (PR) ([1]; assessed at 2 months): 8 of the 32
patients who attained a complete regression of the tumor (CR) ([1]; assessed at 2 months): 17 of the 32
patients who had tumor progression (NR) ([1]; of 32 patients): 7 patients
